# Experimental data: ChEMBL document CHEMBL3994622, “Design and synthesis of new RAF kinase-inhibiting antiproliferative quinoline derivatives. Part 2: Diarylurea derivatives” (Eur J Med Chem, 2017)
# Columns and labels:
# K562 = test: Growth inhibition of human K562 cells incubated for 48 hrs by sulforhodamine B assay; type: functional; settings: K562, 48 h
# MOLT-4 = test: Growth inhibition of human MOLT4 cells incubated for 48 hrs by sulforhodamine B assay; type: functional; settings: MOLT-4, 48 h
# RPMI-8226 = test: Growth inhibition of human RPMI8226 cells incubated for 48 hrs by sulforhodamine B assay; type: functional; settings: RPMI-8226, 48 h
# SR = test: Growth inhibition of human SR cells incubated for 48 hrs by sulforhodamine B assay; type: functional
# EKVX = test: Growth inhibition of human EKVX cells incubated for 48 hrs by sulforhodamine B assay; type: functional
# HOP-92 = test: Growth inhibition of human HOP92 cells incubated for 48 hrs by sulforhodamine B assay; type: functional; settings: HOP-92, 48 h
# NCI-H460 = test: Growth inhibition of human NCI-H460 cells incubated for 48 hrs by sulforhodamine B assay; type: functional; settings: NCI-H460, 48 h
# COLO 205 = test: Growth inhibition of human COLO205 cells incubated for 48 hrs by sulforhodamine B assay; type: functional; settings: COLO 205, 48 h
# KM12 = test: Growth inhibition of human KM12 cells incubated for 48 hrs by sulforhodamine B assay; type: functional; settings: KM12, 48 h
# SF-268 = test: Growth inhibition of human SF268 cells incubated for 48 hrs by sulforhodamine B assay; type: functional; settings: SF-268, 48 h
# SF-295 = test: Growth inhibition of human SF295 cells incubated for 48 hrs by sulforhodamine B assay; type: functional; settings: SF-295, 48 h
# SF-539 = test: Growth inhibition of human SF539 cells incubated for 48 hrs by sulforhodamine B assay; type: functional; settings: SF-539, 48 h
# SNB-19 = test: Growth inhibition of human SNB19 cells incubated for 48 hrs by sulforhodamine B assay; type: functional; settings: SNB-19, 48 h
# SNB-75 = test: Growth inhibition of human SNB75 cells incubated for 48 hrs by sulforhodamine B assay; type: functional; settings: SNB-75, 48 h
# U-251 = test: Growth inhibition of human U251 cells incubated for 48 hrs by sulforhodamine B assay; type: functional; settings: U-251, 48 h
# Malme-3M = test: Growth inhibition of human MALME-3M cells incubated for 48 hrs by sulforhodamine B assay; type: functional
# MDA-MB-435 = test: Growth inhibition of human MDA-MB-435 cells incubated for 48 hrs by sulforhodamine B assay; type: functional; settings: MDA-MB-435, 48 h
# UACC-62 = test: Growth inhibition of human UACC62 cells incubated for 48 hrs by sulforhodamine B assay; type: functional; settings: UACC-62, 48 h
# IGROV-1 = test: Growth inhibition of human IGROV1 cells incubated for 48 hrs by sulforhodamine B assay; type: functional; settings: IGROV-1, 48 h
# OVCAR-5 = test: Growth inhibition of human OVCAR5 cells incubated for 48 hrs by sulforhodamine B assay; type: functional; settings: OVCAR-5, 48 h
# OVCAR-8 = test: Growth inhibition of human OVCAR8 cells incubated for 48 hrs by sulforhodamine B assay; type: functional; settings: OVCAR-8, 48 h
# NCI/ADR-RES = test: Growth inhibition of human NCI/ADR-RES cells incubated for 48 hrs by sulforhodamine B assay; type: functional
# SK-OV-3 = test: Growth inhibition of human SKOV3 cells incubated for 48 hrs by sulforhodamine B assay; type: functional; settings: SK-OV-3, 48 h
# ACHN = test: Growth inhibition of human ACHN cells incubated for 48 hrs by sulforhodamine B assay; type: functional
# CAKI-1 = test: Growth inhibition of human Caki1 cells incubated for 48 hrs by sulforhodamine B assay; type: functional; settings: CAKI-1, 48 h
# RXF 393 = test: Growth inhibition of human RXF393 cells incubated for 48 hrs by sulforhodamine B assay; type: functional; settings: RXF 393, 48 h
# SN12C = test: Growth inhibition of human SN12C cells incubated for 48 hrs by sulforhodamine B assay; type: functional
# TK-10 = test: Growth inhibition of human TK10 cells incubated for 48 hrs by sulforhodamine B assay; type: functional; settings: TK-10, 48 h
# MCF7 = test: Growth inhibition of human MCF7 cells incubated for 48 hrs by sulforhodamine B assay; type: functional; settings: MCF7, 48 h
# MDA-MB-231 = test: Growth inhibition of human MDA-MB-231 cells incubated for 48 hrs by sulforhodamine B assay; type: functional; settings: MDA-MB-231, 48 h
# BT-549 = test: Growth inhibition of human BT549 cells incubated for 48 hrs by sulforhodamine B assay; type: functional; settings: BT-549, 48 h
# [1] = target: RAF proto-oncogene serine/threonine-protein kinase (Homo sapiens, UniProt P04049); test: Inhibition of human c-RAF at 10 uM using MEK1 as substrate in presence of [33P]ATP by Hotspot assay relative to control
# RAF proto-oncogene serine/threonine-protein kinase, sequence (P04049 whole entry): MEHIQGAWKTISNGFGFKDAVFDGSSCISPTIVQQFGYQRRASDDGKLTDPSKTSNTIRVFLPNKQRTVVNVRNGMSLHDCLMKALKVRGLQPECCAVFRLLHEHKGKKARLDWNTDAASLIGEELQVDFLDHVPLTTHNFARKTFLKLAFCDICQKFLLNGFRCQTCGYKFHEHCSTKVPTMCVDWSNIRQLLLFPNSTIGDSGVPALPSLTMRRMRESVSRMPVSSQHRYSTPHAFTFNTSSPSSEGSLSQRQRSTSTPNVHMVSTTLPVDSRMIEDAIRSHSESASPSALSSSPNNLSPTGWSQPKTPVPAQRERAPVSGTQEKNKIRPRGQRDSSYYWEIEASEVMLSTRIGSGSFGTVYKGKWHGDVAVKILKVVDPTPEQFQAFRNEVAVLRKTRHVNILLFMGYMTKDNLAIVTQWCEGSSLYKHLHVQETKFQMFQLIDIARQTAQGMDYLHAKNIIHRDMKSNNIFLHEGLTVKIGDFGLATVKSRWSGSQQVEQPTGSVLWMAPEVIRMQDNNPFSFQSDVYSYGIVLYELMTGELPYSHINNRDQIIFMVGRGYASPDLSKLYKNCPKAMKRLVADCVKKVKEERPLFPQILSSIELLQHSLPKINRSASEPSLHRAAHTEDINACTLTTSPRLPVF
# [2] = read-out: LC50 (the source's name)
smiles,measurement,setting,value
COc1cc2cc(Oc3ccc(NC(=O)Nc4ccc(Cl)c(C(F)(F)F)c4)cc3)c(C)nc2cc1OC,GI50,K562,1.11 µM
same,LC50 (concentration killing 50% of cells),K562,23.6 µM
same,TGI,K562,4.81 µM
same,GI50,MOLT-4,1.14 µM
same,LC50,MOLT-4,> 32.5 µM
same,TGI,MOLT-4,5.49 µM
same,GI50,RPMI-8226,0.636 to 0.64 µM
same,"LC50 (lethal concentration, 50% cell kill)",RPMI-8226,> 32.5 µM
same,TGI,RPMI-8226,1.65 µM
same,GI50,SR,0.831 µM
same,TGI,SR,2.65 µM
same,CC50,SR; [2],> 32.5 µM
same,GI50,EKVX,1.01 µM
same,LC50 (concentration killing 50% of cells),EKVX,17.6 µM
same,TGI,EKVX,3.75 µM
same,GI50,HOP-92,0.682 µM
same,LC50,HOP-92,10.3 µM
same,TGI,HOP-92,2.05 µM
same,GI50,NCI-H460,1.07 µM
same,TGI,NCI-H460,3.57 µM
same,CC50,NCI-H460; [2],21.1 µM
same,GI50,COLO 205,0.66 µM
same,TGI,COLO 205,1.31 µM
same,CC50,COLO 205; [2],2.59 µM
same,GI50,KM12,1.07 µM
same,TGI,KM12,3.85 µM
same,CC50,KM12; [2],13.8 µM
same,GI50,SF-268,1.55 µM
same,LC50 (50% lethal concentration),SF-268,22.6 µM
same,TGI,SF-268,6.34 µM
same,GI50,SF-295,0.899 to 0.9 µM
same,TGI,SF-295,2.91 µM
same,CC50,SF-295; [2],22.2 µM
same,GI50,SF-539,1.96 µM
same,TGI,SF-539,8.39 µM
same,CC50,SF-539; [2],> 32.5 µM
same,GI50,SNB-19,1.41 µM
same,TGI,SNB-19,5.31 µM
same,CC50,SNB-19; [2],15 µM
same,GI50,SNB-75,1.03 µM
same,TGI,SNB-75,4.9 µM
same,CC50,SNB-75; [2],> 32.5 µM
same,GI50,U-251,1.03 µM
same,TGI,U-251,3.78 µM
same,CC50,U-251; [2],12.6 µM
same,GI50,Malme-3M,1.33 µM
same,TGI,Malme-3M,5.71 µM
same,CC50,Malme-3M; [2],> 32.5 µM
same,GI50,MDA-MB-435,1.03 µM
same,TGI,MDA-MB-435,4.71 µM
same,CC50,MDA-MB-435; [2],> 32.5 µM
same,GI50,UACC-62,1.24 µM
same,TGI,UACC-62,6.01 µM
same,CC50,UACC-62; [2],18.4 µM
same,GI50,IGROV-1,2.34 µM
same,TGI,IGROV-1,9.83 µM
same,CC50,IGROV-1; [2],> 32.5 µM
same,GI50,OVCAR-5,1.93 µM
same,TGI,OVCAR-5,6.22 µM
same,CC50,OVCAR-5; [2],17.4 µM
same,GI50,OVCAR-8,1.04 µM
same,TGI,OVCAR-8,4.55 µM
same,CC50,OVCAR-8; [2],> 32.5 µM
same,GI50,NCI/ADR-RES,1.06 µM
same,TGI,NCI/ADR-RES,4.91 µM
same,CC50,NCI/ADR-RES; [2],> 32.5 µM
same,GI50,SK-OV-3,1.35 µM
same,TGI,SK-OV-3,5.79 µM
same,CC50,SK-OV-3; [2],31.5 µM
same,GI50,ACHN,1.07 µM
same,TGI,ACHN,4 µM
same,CC50,ACHN; [2],13.7 µM
same,GI50,CAKI-1,0.782 µM
same,TGI,CAKI-1,2.54 µM
same,CC50,CAKI-1; [2],25.2 µM
same,GI50,RXF 393,1.33 µM
same,TGI,RXF 393,4.21 µM
same,CC50,RXF 393; [2],15 µM
same,GI50,SN12C,1.31 µM
same,TGI,SN12C,6.12 µM
same,CC50,SN12C; [2],26.8 µM
same,GI50,TK-10,1.32 µM
same,TGI,TK-10,6.19 µM
same,CC50,TK-10; [2],> 32.5 µM
same,GI50,MCF7,1.08 µM
same,TGI,MCF7,3.88 µM
same,CC50,MCF7; [2],15 µM
same,GI50,MDA-MB-231,0.681 µM
same,TGI,MDA-MB-231,1.84 µM
same,CC50,MDA-MB-231; [2],9.6 µM
same,GI50,BT-549,0.981 µM
same,TGI,BT-549,4.59 µM
same,CC50,BT-549; [2],20.5 µM
same,inhibition,[1],99.7%
